The results in this text go back to US9737535B2, “Methods for treating cancer using TOR kinase inhibitor combination therapy comprising administering substituted pyrazino[2,3-b]pyrazines” (Signal Pharmaceuticals, LLC, priority 2014, dated 2017).

Common to all, as to assay: Anti-proliferation assay (ATPLite), Chalice synergy score
Holding throughout (format): cell-based

For one assay, the system named is HCC-1806. The note with it: Compound 1 in combination with the named second active agent, 72 h, mean of n = 3 experiments in triplicate. The text has this:
(§1) Cells were thawed from a liquid nitrogen preserved state.
(§2) The calculation for synergy score is provided below.
(§3) If T≧V0:100*[1−(T−V0)/(V−V0)]

Another assay has as its system HCC70. The following applies: Compound 1 in combination with second active agent; HCC-70; mean self-cross + 2σ threshold 3.45.
Source text: as §1, §2, §3

The test system of the next assay is Hs-578-T. The note with it: Compound 1 in combination with second active agent, mean self-cross + 2σ threshold 4.09.
Source text: as §1, §2, §3

In the next assay the test system is MDA-MB-468. The note with it: Compound 1 in combination with second active agent, mean self-cross + 2σ threshold 4.66.
Source text: as §1, §2, §3

The subject of another assay is HCC-1428. The note with it: Compound 1 in combination with the named second active agent, 72 h, mean of n = 3 experiments in triplicate.
Source text: as §1, §2, §3

The subject of the next assay is HCC-1937. The note with it: Compound 1 in combination with the named second active agent, 72 h, mean of n = 3 experiments in triplicate.
Source text: as §1, §2, §3

The next assay has as its system MDA-MB-157. The following applies: Compound 1 in combination with second active agent, mean self-cross + 2σ threshold 4.68.
Source text: as §1, §2, §3

A further assay relates to MCF7. The note with it: Compound 1 in combination with second active agent, mean self-cross + 2σ threshold 3.07.
Source text: as §1, §2, §3

Another assay has as its system BT-549. The note with it: Compound 1 in combination with the named second active agent, 72 h, mean of n = 3 experiments in triplicate.
Source text: as §1, §2, §3

Another assay relates to MDA-MB-231. The following applies: Compound 1 in combination with second active agent, mean self-cross + 2σ threshold 2.61.
Source text: as §1, §2, §3

A further assay deals with MDA-MB-436. The following applies: Compound 1 in combination with second active agent, mean self-cross + 2σ threshold 1.91.
Source text: as §1, §2, §3

In the next assay the test system is BT-474. The note with it: Compound 1 in combination with the named second active agent, 72 h, mean of n = 3 experiments in triplicate.
Source text: as §1, §2, §3

In another assay the test system is HCC-1187. On the set-up: scale not given here. The note with it: Compound 1 in combination with the named second active agent, 72 h, mean of n = 3 experiments in triplicate.
Source text: as §1, §2, §3

A further assay relates to HCC-1500. On the set-up: scale not given here. The note with it: Compound 1 in combination with the named second active agent, 72 h, mean of n = 3 experiments in triplicate.
Source text: as §1, §2, §3

For the next assay, the system named is BT-20. On the set-up: scale not given here. The following applies: Compound 1 in combination with the named second active agent, 72 h, mean of n = 3 experiments in triplicate.
Source text: as §1, §2, §3

As to `Clc1ccc(C2(c3ccc(-c4cn[nH]c4)cc3)CCNCC2)cc1` [AT7867], the Synergy score was determined as 2.04 in the assay on HCC-1806; 4.28 in the assay with HCC70; 5.24 in the assay with Hs-578-T; 3.60 in the assay on MDA-MB-468; 1.42 with HCC-1428; 1.72 in the assay on HCC-1937. The Synergy score is on record as 3.19 with MDA-MB-157; 1.39 in the assay on MCF7; 4.50 with BT-549; 3.58 in the assay with MDA-MB-231; 1.95 in the assay on MDA-MB-436; 1.83 in the assay with BT-474. The Synergy score with HCC-1187 is 4.19; in the assay with HCC-1500, 2.00; in the assay with BT-20, 3.07.

On to `C=CCn1c(=O)c2cnc(Nc3ccc(N4CCN(C)CC4)cc3)nc2n1-c1cccc(C(C)(C)O)n1` [MK1775], for which the Synergy score in the assay with HCC-1806 is reported as 0.55; in the assay on HCC70 it was 12.10; with Hs-578-T, 9.02; in the assay with MDA-MB-468, 7.69; in the assay with HCC-1428, 3.25; in the assay with HCC-1937 it was 7.93. The Synergy score with MDA-MB-157 came out at 2.68; with MCF7, 5.76; in the assay with BT-549, 2.99; in the assay on MDA-MB-231 it was 2.31; with MDA-MB-436, 1.45; in the assay with BT-474 it was 9.61. Also, the Synergy score is listed as 1.30 in the assay on HCC-1187, 2.46 with HCC-1500 and 5.01 with BT-20.

Consider `NC(=O)Nc1cc(-c2cccc(F)c2)sc1C(=O)N[C@H]1CCCNC1` [AZD7762], for which the Synergy score with HCC-1806 came to 0.32; in the assay on HCC70, 4.61; with Hs-578-T, 8.16; in the assay with MDA-MB-468 it was 0.94; in the assay on HCC-1428 it was 2.58; with HCC-1937 it was 4.44. The Synergy score was 3.09 in the assay with MDA-MB-157; 0.08 with MCF7; 0.39 in the assay with BT-549; 3.66 in the assay with MDA-MB-231; 0.93 in the assay with MDA-MB-436; 1.21 with BT-474. The figures for the Synergy score with HCC-1187, with HCC-1500 and with BT-20 were 1.65, 3.02 and 3.92, respectively.

As to `CC(C)C[C@H](NC(=O)CNC(=O)c1cc(Cl)ccc1Cl)B1OC(=O)C(CC(=O)O)(CC(=O)O)O1` [MLN9708], the Synergy score in the assay on HCC-1806 was determined as 4.31; in the assay on HCC70, 2.16; in the assay with Hs-578-T it was 1.68; in the assay with MDA-MB-468 it was 3.00; in the assay with HCC-1428, 2.59; with HCC-1937, 3.84. The Synergy score in the assay on MDA-MB-157 came to 2.91; with MCF7, 0.39; in the assay on BT-549, 4.47; with MDA-MB-231, 2.27; with MDA-MB-436, 2.77; in the assay on BT-474 it was 0.75. Also, the Synergy score with HCC-1187 turned out to be 1.79; with HCC-1500 it was 2.26; with BT-20 it was 3.67.

Regarding `CN(C)CCCn1cc(C2=C(c3c[nH]c4ccccc34)C(=O)NC2=O)c2ccccc21` [GF 109203X], the Synergy score amounted to 0.43 in the assay on HCC-1806; 4.47 with HCC70; 2.35 with Hs-578-T; 10.60 in the assay on MDA-MB-468; 0.47 in the assay with HCC-1428; 3.03 in the assay on HCC-1937. Besides, the Synergy score is given as 6.19 with MDA-MB-157; 0.35 in the assay on MCF7; 1.73 in the assay with BT-549; 2.28 in the assay with MDA-MB-231; 2.60 in the assay on MDA-MB-436; 0.47 in the assay with BT-474. Moreover, the Synergy score was 4.47 with HCC-1187, 3.41 in the assay on HCC-1500 and 1.04 with BT-20.

On to `C=CC(=O)Nc1ccc2ncnc(Nc3ccc(OCc4cccc(F)c4)c(Cl)c3)c2c1` [AST-1306], for which the Synergy score was determined as 5.59 with HCC-1806; 7.50 with HCC70; 4.43 in the assay with Hs-578-T; 5.65 with MDA-MB-468; 2.69 in the assay on HCC-1428; 6.39 in the assay on HCC-1937. For the same compound, the Synergy score with MDA-MB-157 was found to be 3.02; in the assay with MCF7, 4.34; in the assay with BT-549, 4.88; in the assay on MDA-MB-231, 4.37; with MDA-MB-436 it was 2.08; in the assay on BT-474, 4.02. The Synergy score in the assay with HCC-1187 is listed as 2.17; in the assay with HCC-1500, 0.96; in the assay on BT-20, 7.60.

Consider `O=C(NC[C@H](O)CO)c1ccncc1Nc1ccc(I)cc1F` [AS703026], for which the Synergy score in the assay with HCC-1806 stood at 4.71; with HCC70, 13.70; with Hs-578-T, 6.43; with MDA-MB-468 it was 5.71; in the assay with HCC-1428, 6.26; with HCC-1937, 2.41. The Synergy score in the assay on MDA-MB-157 is reported as 6.66; with MCF7, 2.90; in the assay on BT-549, 1.73; with MDA-MB-231, 10.90; in the assay with MDA-MB-436, 2.25; in the assay with BT-474 it was 2.61. The Synergy score in the assay on HCC-1187 was 8.22; with HCC-1500, 4.24; in the assay on BT-20, 6.08.

As for `OCCn1cc(-c2cnc3nnn(Cc4ccc5ncccc5c4)c3n2)cn1` [PF-04217903], the Synergy score in the assay with HCC-1806 came out at 0.39; in the assay on HCC70 it was 0.33; with Hs-578-T it was 1.12; with MDA-MB-468 it was 1.09; in the assay with HCC-1428, 0.31; in the assay with HCC-1937, 0.44. The Synergy score with MDA-MB-157 worked out at 0.75; in the assay with MCF7, 0.20; in the assay with BT-549 it was 0.04; with MDA-MB-231 it was 0.53; in the assay with MDA-MB-436, 0.08; in the assay with BT-474, 0.57. Moreover, the Synergy score is 0.17 in the assay with HCC-1187, 0.11 with HCC-1500 and 0.05 with BT-20.

For the compound `CC[C@@]1(O)C(=O)OCc2c1cc1n(c2=O)Cc2cc3cc(O)ccc3nc2-1` [10-Hydroxycamptothecin], the Synergy score in the assay on HCC-1806 was determined as 3.88; in the assay on HCC70, 6.31; with Hs-578-T, 1.70; with MDA-MB-468 it was 7.86; in the assay on HCC-1428, 4.13; with HCC-1937, 12.40. The Synergy score in the assay on MDA-MB-157 was 10.30; in the assay on MCF7, 3.80; with BT-549, 4.11; in the assay with MDA-MB-231, 8.55; in the assay on MDA-MB-436 it was 3.62; in the assay with BT-474, 1.20. The Synergy score with HCC-1187 is reported as 6.49; in the assay on HCC-1500, 4.43; in the assay with BT-20, 6.15.

For the compound `Cc1ccc(S(=O)(=O)/C=C/C#N)cc1` [Bay 11-7082], the Synergy score in the assay with HCC-1806 is 1.01; in the assay on HCC70, 1.13; in the assay with Hs-578-T, 1.51; with MDA-MB-468, 1.89; in the assay on HCC-1428, 1.53; in the assay with HCC-1937, 1.23. Also, the Synergy score is reported as 3.65 with MDA-MB-157; 0.02 with MCF7; 1.16 with BT-549; 0.61 in the assay on MDA-MB-231; 1.24 in the assay with MDA-MB-436; 0.93 with BT-474. In addition, the Synergy score in the assay with HCC-1187 is on record as 0.51; in the assay with HCC-1500, 0.52; in the assay on BT-20, 0.00.

Consider `COc1ccc(-c2cc3nccn3c(Nc3ncccc3C(N)=O)n2)cc1OC.Cl` [BAY61-3606 Hydrochloride], for which the Synergy score in the assay with HCC-1806 is on record as 0.48; with HCC70, 3.93; with Hs-578-T it was 5.49; in the assay on MDA-MB-468 it was 5.47; in the assay with HCC-1428, 1.21; in the assay on HCC-1937 it was 0.18. Besides, the Synergy score with MDA-MB-157 came out at 1.49; with MCF7, 1.49; with BT-549, 2.31; in the assay with MDA-MB-231, 0.79; in the assay with MDA-MB-436 it was 0.94; in the assay on BT-474 it was 0.04. Besides, the results for the Synergy score with HCC-1187, with HCC-1500 and with BT-20 were 3.17, 0.02 and 0.20, respectively.
